Where a name gives a salt, the structure may show the parent alone. Each block holds one compound with its values, some of them ahead of it.
Assays:
PDE5 [1] = target: T1, PDE5 (Homo sapiens, UniProt O76074); test: Inhibiting effect to PDE5 degrading cGMP (cGMP enzyme immunoassay, EIA); format: biochemical; details: 3200 fmol cGMP, PDE5 3u, 30° C., 20 min; PROBIT regression
PDE5 [2] = target: T1, PDE5; test: Effect to PDE5 on cAMP (cAMP enzyme immunoassay, EIA); format: biochemical; details: 1600 fmol cAMP, PDE5 3u, 30° C., 20 min; 10^−4 to 10^−12 mol·L^−1; p>0.05, S curve cannot be fitted
pulmonary hypertension = details: animal model experiments; cited from earlier work
[3] = test system: rats having hypertension induced by monocrotaline; details: cited from earlier work

IC50 (PDE5 [1]): 2.12 nM | Effect to PDE5 on cAMP (OD value vs negative control) (PDE5 [2]): no substantial difference in OD value
Compound: CCCc1nn(C)c2c(=O)[nH]c(-c3cc(S(=O)(=O)N4C[C@@H](C)N(C)[C@@H](C)C4)ccc3OCC)nc12 [ZTH, 5-[2-ethoxyphenyl-5-(3,4,5-trimethylpiperazinyl)-sulfonyl]-1-methyl-3-propyl-1,6-dihydro-7H-pyrazolo[4,3-d]pyrimidine-7-ketone citrate]

Compound: CCCOc1ccccc1-c1nc2nn[nH]c2c(=O)[nH]1 [zaprinast]
Effect on pulmonary hypertension (pulmonary hypertension): relatively strong effects to lower pulmonary hypertension

Compound: COc1ccc(CNc2nnc(N3CCC(O)CC3)c3ccc(C#N)cc23)cc1Cl.Cl [E-4010]
Survival rate [3]: can increase the survival rate

From patent publication US8859565B2, “Compound for inhibiting type 5 phosphodiesterase and preparation method thereof” (priority 2010, dated 2014)
